# “And” between values parts separate entries of the source, which are not always exact repeats. Identical values can stand only once. Like-named read-outs stand apart in the source and are kept apart here.
# Experiments:
# Human mTOR (FLAG-TOR) = Human mTOR (FLAG-TOR) (Homo sapiens, UniProt P42345); assay: mTOR kinase assay (DELFIA format, purified enzyme); format: biochemical; conditions: read-out: IC50 mTOR
# [1] = tested on: human breast MDA-MB-361 tumor cell line; assay: In vitro cell culture growth assay (MTS), MDA-MB-361; format: cell-based; conditions: Homo sapiens, three days after drug treatment, read-out: IC50 MDA-MB-361
# [2] = tested on: human prostate PC3-mm2 tumor cell line; assay: In vitro cell culture growth assay (MTS), PC3-mm2; format: cell-based; conditions: Homo sapiens, PC3MM2, 72 h, three days after drug treatment, read-out: IC50 PC3-mm2
# PI3K-α = PI3K-α (Homo sapiens, UniProt P42336); assay: PI3K-alpha fluorescence polarization assay; conditions: read-out: IC50 PI3Kα
# PI3K-γ = PI3K-γ (Homo sapiens, UniProt P48736); assay: PI3K-gamma fluorescence polarization assay; conditions: read-out: IC50 PI3Kγ
# [3] = 72 h, MTS cell growth assay, MDA-MB-361 cells
# [4] = MTS cell growth assay, PC3-mm2 cells
# [5] = MDA-MB-361, 72 h, MTS cell growth assay
# [6] = MDA-MB-361, 72 h, MTS cell growth assay, MDA-MB-361 cells
# Sequence of PI3K-γ (P48736 whole entry, species assumed): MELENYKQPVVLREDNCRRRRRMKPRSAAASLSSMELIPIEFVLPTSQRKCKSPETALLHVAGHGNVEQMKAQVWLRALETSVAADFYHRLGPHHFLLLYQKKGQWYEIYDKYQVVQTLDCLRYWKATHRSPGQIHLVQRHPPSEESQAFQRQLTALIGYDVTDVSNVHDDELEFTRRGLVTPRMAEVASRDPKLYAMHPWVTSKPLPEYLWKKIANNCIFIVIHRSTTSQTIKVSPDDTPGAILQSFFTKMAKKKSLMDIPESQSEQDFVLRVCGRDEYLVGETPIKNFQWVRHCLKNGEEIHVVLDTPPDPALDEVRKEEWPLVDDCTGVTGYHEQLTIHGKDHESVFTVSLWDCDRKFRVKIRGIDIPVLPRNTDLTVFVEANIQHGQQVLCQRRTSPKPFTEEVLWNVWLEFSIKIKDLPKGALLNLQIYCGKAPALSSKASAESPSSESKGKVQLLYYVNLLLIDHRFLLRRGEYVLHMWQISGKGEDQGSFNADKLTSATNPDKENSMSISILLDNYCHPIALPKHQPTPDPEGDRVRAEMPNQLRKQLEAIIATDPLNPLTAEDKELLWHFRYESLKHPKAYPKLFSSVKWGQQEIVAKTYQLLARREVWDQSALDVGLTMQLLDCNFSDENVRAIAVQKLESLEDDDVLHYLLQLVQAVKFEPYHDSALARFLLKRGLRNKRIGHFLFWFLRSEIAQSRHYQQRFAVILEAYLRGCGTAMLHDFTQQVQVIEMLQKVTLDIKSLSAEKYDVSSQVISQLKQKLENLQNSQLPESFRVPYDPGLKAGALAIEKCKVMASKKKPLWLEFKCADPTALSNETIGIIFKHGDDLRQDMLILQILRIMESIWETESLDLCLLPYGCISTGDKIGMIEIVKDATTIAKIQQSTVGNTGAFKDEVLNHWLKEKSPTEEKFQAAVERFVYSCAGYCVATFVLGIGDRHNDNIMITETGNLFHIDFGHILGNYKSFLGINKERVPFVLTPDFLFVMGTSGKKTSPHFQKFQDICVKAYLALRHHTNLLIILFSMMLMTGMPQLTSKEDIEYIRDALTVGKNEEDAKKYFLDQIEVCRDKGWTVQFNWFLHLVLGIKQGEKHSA
# Sequence of PI3K-α (P42336 whole entry, species assumed): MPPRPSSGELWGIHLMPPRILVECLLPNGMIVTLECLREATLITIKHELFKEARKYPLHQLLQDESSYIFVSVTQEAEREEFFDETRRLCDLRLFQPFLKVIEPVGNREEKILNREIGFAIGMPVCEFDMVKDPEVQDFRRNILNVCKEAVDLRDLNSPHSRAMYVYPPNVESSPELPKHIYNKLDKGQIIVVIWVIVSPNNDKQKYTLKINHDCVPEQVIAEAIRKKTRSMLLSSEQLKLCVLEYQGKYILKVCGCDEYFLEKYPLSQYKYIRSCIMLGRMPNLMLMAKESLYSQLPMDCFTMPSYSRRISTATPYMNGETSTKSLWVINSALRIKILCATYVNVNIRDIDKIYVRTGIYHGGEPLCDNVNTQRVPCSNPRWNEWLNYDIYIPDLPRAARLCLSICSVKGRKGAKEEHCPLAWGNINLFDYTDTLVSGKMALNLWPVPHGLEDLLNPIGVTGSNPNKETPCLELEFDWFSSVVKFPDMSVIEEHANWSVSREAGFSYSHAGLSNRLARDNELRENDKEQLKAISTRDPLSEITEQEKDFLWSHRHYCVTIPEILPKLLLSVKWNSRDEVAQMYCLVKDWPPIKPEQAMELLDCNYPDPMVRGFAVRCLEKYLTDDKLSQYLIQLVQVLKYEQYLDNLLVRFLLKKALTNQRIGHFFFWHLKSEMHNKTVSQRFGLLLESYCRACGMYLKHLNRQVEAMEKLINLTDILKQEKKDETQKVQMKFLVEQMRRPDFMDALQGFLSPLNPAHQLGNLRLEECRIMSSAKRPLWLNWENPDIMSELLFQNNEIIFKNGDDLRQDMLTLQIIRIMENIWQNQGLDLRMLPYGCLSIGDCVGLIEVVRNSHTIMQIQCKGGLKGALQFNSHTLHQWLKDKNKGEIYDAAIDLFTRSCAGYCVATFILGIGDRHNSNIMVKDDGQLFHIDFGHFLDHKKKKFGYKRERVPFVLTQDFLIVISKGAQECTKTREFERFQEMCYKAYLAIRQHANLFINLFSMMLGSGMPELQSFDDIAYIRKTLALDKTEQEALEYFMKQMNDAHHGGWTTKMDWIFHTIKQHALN
# Sequence of PI3K-α (P27986 whole entry partner, species assumed): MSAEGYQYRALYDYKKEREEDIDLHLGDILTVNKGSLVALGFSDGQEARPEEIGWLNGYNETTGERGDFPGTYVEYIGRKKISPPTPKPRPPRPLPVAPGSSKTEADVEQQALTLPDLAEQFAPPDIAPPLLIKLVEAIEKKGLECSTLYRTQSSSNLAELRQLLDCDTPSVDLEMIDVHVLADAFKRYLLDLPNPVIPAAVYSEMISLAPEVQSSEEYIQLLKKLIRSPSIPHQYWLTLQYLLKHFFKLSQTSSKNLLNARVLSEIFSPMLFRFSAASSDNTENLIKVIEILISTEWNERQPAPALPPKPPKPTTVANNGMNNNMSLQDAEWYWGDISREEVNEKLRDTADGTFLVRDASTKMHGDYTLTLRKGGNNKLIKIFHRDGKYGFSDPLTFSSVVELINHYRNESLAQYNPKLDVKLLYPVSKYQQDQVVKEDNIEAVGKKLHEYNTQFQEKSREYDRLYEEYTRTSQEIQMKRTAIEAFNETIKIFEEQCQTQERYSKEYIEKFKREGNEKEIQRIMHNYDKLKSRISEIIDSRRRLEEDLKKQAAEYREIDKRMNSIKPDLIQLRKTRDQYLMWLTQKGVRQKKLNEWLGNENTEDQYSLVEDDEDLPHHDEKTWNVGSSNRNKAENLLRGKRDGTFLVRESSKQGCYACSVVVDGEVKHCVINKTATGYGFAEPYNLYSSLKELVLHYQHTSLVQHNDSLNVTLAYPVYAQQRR
# Sequence of Human mTOR (FLAG-TOR) (P42345 1360-2549 limits assumed): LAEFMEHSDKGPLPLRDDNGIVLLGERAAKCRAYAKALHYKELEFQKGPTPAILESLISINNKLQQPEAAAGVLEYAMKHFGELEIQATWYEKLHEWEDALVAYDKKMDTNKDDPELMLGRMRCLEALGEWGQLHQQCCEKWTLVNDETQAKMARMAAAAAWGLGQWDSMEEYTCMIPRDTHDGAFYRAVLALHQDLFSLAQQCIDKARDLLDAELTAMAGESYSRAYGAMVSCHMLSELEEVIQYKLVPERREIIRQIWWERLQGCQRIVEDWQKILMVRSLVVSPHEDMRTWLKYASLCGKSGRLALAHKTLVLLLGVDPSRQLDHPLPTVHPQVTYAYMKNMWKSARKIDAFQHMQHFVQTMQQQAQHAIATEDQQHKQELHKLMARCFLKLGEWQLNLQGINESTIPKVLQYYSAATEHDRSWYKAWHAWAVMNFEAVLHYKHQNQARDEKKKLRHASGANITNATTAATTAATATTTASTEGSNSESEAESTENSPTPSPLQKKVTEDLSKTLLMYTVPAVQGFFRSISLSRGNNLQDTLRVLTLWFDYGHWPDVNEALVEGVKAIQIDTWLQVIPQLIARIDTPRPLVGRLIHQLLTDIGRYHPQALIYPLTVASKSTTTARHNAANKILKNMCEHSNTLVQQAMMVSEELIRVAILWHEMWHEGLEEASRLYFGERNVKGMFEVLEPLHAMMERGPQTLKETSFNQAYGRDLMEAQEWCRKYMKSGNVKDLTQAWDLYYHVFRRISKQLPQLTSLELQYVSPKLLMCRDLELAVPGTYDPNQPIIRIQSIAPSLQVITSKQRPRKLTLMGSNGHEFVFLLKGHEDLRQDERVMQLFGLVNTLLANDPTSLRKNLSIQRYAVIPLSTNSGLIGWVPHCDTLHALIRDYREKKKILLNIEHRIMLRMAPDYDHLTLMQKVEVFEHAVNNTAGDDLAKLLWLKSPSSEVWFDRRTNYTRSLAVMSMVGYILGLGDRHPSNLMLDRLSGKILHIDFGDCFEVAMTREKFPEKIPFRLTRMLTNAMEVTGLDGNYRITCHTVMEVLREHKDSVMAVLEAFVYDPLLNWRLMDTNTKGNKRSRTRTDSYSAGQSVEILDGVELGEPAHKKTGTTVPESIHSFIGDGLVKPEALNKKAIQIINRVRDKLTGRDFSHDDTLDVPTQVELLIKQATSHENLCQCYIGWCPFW
Structure (SMILES),IC50 (Human mTOR (FLAG-TOR)),"IC50 [1, 3] [nM]","IC50 [2, 4] [nM]",IC50 (PI3K-α) [nM],IC50 (PI3K-γ) [nM],"IC50 [1, 5] [nM]",IC50 ([2]; MTS cell growth assay) [nM],IC50 (PI3K-α; listed as 740) [nM],IC50 (PI3K-γ; listed as 740) [nM],"IC50 [1, 6] [nM]",IC50 (PI3K-α; listed as 527) [nM],"IC50 ([1]; MDA-MB-361, 72 h, MDA-MB-361 cells, MTS) [nM]","IC50 ([2]; PC3-mm2 cells, MTS) [nM]","IC50 ([1]; 72 h, MDA-MB-361 cells, MTS) [nM]"
"C[C@H]1COCCN1c1nc(-c2ccc(NC(=O)Nc3ccc(C(=O)NCCN4CCN(C)CC4)cc3)cc2)nc(N2CCOC[C@@H]2C)n1 [Example 633, 4-{[(4-{4,6-bis[(3S)-3-methylmorpholin-4-yl]-1,3,5-triazin-2-yl}phenyl)carbamoyl]amino}-N-[2-(4-methylpiperazin-1-yl)ethyl]benzamide]",1 nM,15,64,11.5,175,,,,,,,,,
"O=C(Nc1ccncc1)Nc1ccc(-c2nc(N3CCOCC3)nc(N3CC4COC(C3)O4)n2)cc1 (stereo not shown) [Example 282, 1-{4-[4-(6,8-dioxa-3-azabicyclo[3.2.1]oct-3-yl)-6-morpholin-4-yl-1,3,5-triazin-2-yl]phenyl}-3-pyridin-4-ylurea]",4.7 nM and 4.05 nM,,84,10,32,83,84,11.5,34.5,,,,,
"COc1ccc(NC(=O)Nc2ccc(-c3nc(N4CCOCC4)nc(N4CCOCC4)n3)cc2)cc1 [Example 9, 1-[4-(4,6-dimorpholin-4-yl-1,3,5-triazin-2-yl)phenyl]-3-(4-methoxyphenyl)urea]",4 nM,,,10,65,102,161,,,,,,,
"COCCNC(=O)c1ccc(NC(=O)Nc2ccc(-c3nc(-c4ccc(C)cc4)nc(N4CCOCC4)n3)cc2)cc1 [Example 550, N-(2-methoxyethyl)-4-[({4-[4-(4-methylphenyl)-6-morpholin-4-yl-1,3,5-triazin-2-yl]phenyl}carbamoyl)amino]benzamide]",12.4 nM,315,711,47,374,,,,,,,,,
"COCCNC(=O)c1ccc(NC(=O)Nc2ccc(-c3nc(N4CCOCC4)nc(N4CCN(C(=O)N(C)C)CC4)n3)cc2)cc1 [Example 647, 4-(4-{4-[({4-[(2-methoxyethyl)carbamoyl]phenyl}carbamoyl)amino]phenyl}-6-morpholin-4-yl-1,3,5-triazin-2-yl)-N,N-dimethylpiperazine-1-carboxamide]",3 nM,46,136,24.3,107,,,,,,,,,
"CC(O)c1cccc(NC(=O)Nc2ccc(-c3nc(N4CCOCC4)nc(N4CCOCC4)n3)cc2)c1 (stereo not shown) [Example 57, 1-[4-(4,6-dimorpholin-4-yl-1,3,5-triazin-2-yl)phenyl]-3-[3-(1-hydroxyethyl)phenyl]urea]",16.5 nM,,,8,74,119,187,,,,,,,
"C[C@H]1COCCN1c1nc(-c2ccc(NC(=O)Nc3ccc(C(=O)N4CCN(C)CC4)cc3)cc2)nc(N2CCOCC2)n1 [Example 617, 1-(4-{4-[(3S)-3-methylmorpholin-4-yl]-6-morpholin-4-yl-1,3,5-triazin-2-yl}phenyl)-3-{4-[(4-methylpiperazin-1-yl)carbonyl]phenyl}urea]",1 nM,,17,2.5,27,,,,,4,,,,
"CNCCN(C)C(=O)c1ccc(NC(=O)Nc2ccc(-c3nc(N4CCOCC4)nc(N4C5CCC4COC5)n3)cc2)cc1 [Example 701, N-methyl-N-[2-(methylamino)ethyl]-4-[({4-[4-morpholin-4-yl-6-(3-oxa-8-azabicyclo[3.2.1]oct-8-yl)-1,3,5-triazin-2-yl]phenyl}carbamoyl)amino]benzamide]",0.36 nM,< 30,< 30,2,25,,,,,,,,,
"CC(C)Cc1nc(-c2ccc(NC(=O)Nc3ccc(C(=O)N(C)CCN(C)C)cc3)cc2)nc(N2CCOCC2)n1 [Example 324, N-[2-(dimethylamino)ethyl]-N-methyl-4-[({4-[4-(2-methylpropyl)-6-morpholin-4-yl-1,3,5-triazin-2-yl]phenyl}carbamoyl)amino]benzamide]",5.2 nM,,,1,22,4,35,,,,,,,
"Cc1ccc(-c2nc(-c3ccc(NC(=O)Nc4ccc(C(=O)O)cc4)cc3)nc(N3CCOCC3)n2)cc1 [Example 342, 4-[({4-[4-(4-methylphenyl)-6-morpholin-4-yl-1,3,5-triazin-2-yl]phenyl}carbamoyl)amino]benzoic acid]",6.6 nM and 9.3 nM,,2430,20,127,1260,2430,,,1260,20.5,,,
"O=C(Nc1ccc(C(=O)N2CCNCC2)cc1)Nc1ccc(-c2nc(NS(=O)(=O)c3ccccc3)nc(N3CCOCC3)n2)cc1 [Example 785, N-{4-morpholin-4-yl-6-[4-({[4-(piperazin-1-ylcarbonyl)phenyl]carbamoyl}amino)phenyl]-1,3,5-triazin-2-yl}benzenesulfonamide]",55.5 nM,> 1000,> 1000,6,45.5,,,,,,,,,
"CN(C)C1CCN(C(=O)c2ccc(NC(=O)Nc3ccc(-c4nc(N5CCOCC5)nc(N5CC6CCC5CO6)n4)cc3)cc2)CC1 (stereo not shown) [Example 810, 1-(4-{[4-(dimethylamino)piperidin-1-yl]carbonyl}phenyl)-3-{4-[4-morpholin-4-yl-6-(2-oxa-5-azabicyclo[2.2.2]oct-5-yl)-1,3,5-triazin-2-yl]phenyl}urea]",2.05 nM,,,2.8,30.5,,,,,,,2,26,
"CN1CCN(Nc2nc(-c3ccc(NC(=O)Nc4ccccc4)cc3)nc(N3CCOCC3)n2)CC1 [Example 686, 1-(4-{4-[(4-methylpiperazin-1-yl)amino]-6-morpholin-4-yl-1,3,5-triazin-2-yl}phenyl)-3-phenylurea]",26 nM,569,1100,77,540,,,,,,,,,
"O=C(Nc1ccc(CO)cc1)Nc1ccc(-c2nc(N3CCOCC3)nc(N3CCOCC3)n2)cc1 [Example 51, 1-[4-(4,6-dimorpholin-4-yl-1,3,5-triazin-2-yl)phenyl]-3-[4-(hydroxymethyl)phenyl]urea]",1.9 nM,,,1,15,< 30,< 30,,,,,,,
"COCCNC(=O)c1ccc(NC(=O)Nc2ccc(-c3nc(N4CCCCC4)nc(N4CCOCC4)n3)cc2)cc1 [Example 611, N-(2-methoxyethyl)-4-({[4-(4-morpholin-4-yl-6-piperidin-1-yl-1,3,5-triazin-2-yl)phenyl]carbamoyl}amino)benzamide]",13 nM,194,581,18.5,152,,,,,,,,,
"CN(C)CCCNC(=O)c1ccc(NC(=O)Nc2ccc(-c3nc(N4CCCCC4)nc(N4CCOCC4)n3)cc2)cc1 [Example 610, N-[3-(dimethylamino)propyl]-4-({[4-(4-morpholin-4-yl-6-piperidin-1-yl-1,3,5-triazin-2-yl)phenyl]carbamoyl}amino)benzamide]",5 nM,28,297,3.5,50.5,,,,,,,,,
"CN1CCN(c2ccc(NC(=O)Nc3ccc(-c4nc(N5CCOCC5)nc(N5C6CCC5COC6)n4)cc3)cn2)CC1 [Example 766, 1-[6-(4-methylpiperazin-1-yl)pyridin-3-yl]-3-{4-[4-morpholin-4-yl-6-(3-oxa-8-azabicyclo[3.2.1]oct-8-yl)-1,3,5-triazin-2-yl]phenyl}urea]",1.31 nM,26,50,24,85.5,,,,,,,,,
"O=C(Nc1ccc(C(=O)NCCN2CCCC2)cc1)Nc1ccc(-c2nc(N3CCOCC3)nc(N3C4COCC3COC4)n2)cc1 [Example 774, 4-[({4-[4-(3,7-dioxa-9-azabicyclo[3.3.1]non-9-yl)-6-morpholin-4-yl-1,3,5-triazin-2-yl]phenyl}carbamoyl)amino]-N-(2-pyrrolidin-1-ylethyl)benzamide]",0.23 nM,14,19,2,41.5,,,,,,,,,
"CCc1nc(-c2ccc(NC(=O)Nc3ccc(C(=O)N(C)CCN(C)C)cc3)cc2)nc(N2CCOCC2)n1 [Example 242, N-[2-(dimethylamino)ethyl]-4-({[4-(4-ethyl-6-morpholin-4-yl-1,3,5-triazin-2-yl)phenyl]carbamoyl}amino)-N-methylbenzamide]",7 nM,,,2,24,11,49,,,,,,,
"CN(C)CCNC(=O)c1ccc(NC(=O)Nc2ccc(-c3nc(N4CCOCC4)nc(N4CC5CCC4CO5)n3)cc2)cc1 (stereo not shown) [Example 815, N-[2-(dimethylamino)ethyl]-4-[({4-[4-morpholin-4-yl-6-(2-oxa-5-azabicyclo[2.2.2]oct-5-yl)-1,3,5-triazin-2-yl]phenyl}carbamoyl)amino]benzamide]",0.765 nM,,,1.9,24,,,,,,,,24,3
